Target: human recombinant KAT-II (Homo sapiens (Human), UniProt Q8N5Z0)
Experiment: KAT-II inhibitory test
Type: biochemical
Conditions: 3.0 μmol/L kynurenine, 37° C., 1 hr, pH 8.0; kynurenic acid quantified by HPLC
Procedure: The compounds described in the above-mentioned Examples were used for the KAT-II inhibitory test.
Preparation of Human Recombinant KAT-II
Human recombinant KAT-II was prepared as follows.
His tag and maltose binding protein tag were added to the N-terminal of a gene encoding human KAT-II (Genbank accession number: AF481738.1), and the obtained gene was incorporated into pET32 (Merck Nihon Millipore), which is an Escherichia coli expression vector. Human recombinant KAT-II produced by BL21(DE3) Escherichia coli (Merck Nihon Millipore, 69450) transformed using the plasmid was purified using an amylose resin column (New England Biolabs, #800-21 L).
The inhibitory action of the test compound on human recombinant KAT-II was determined by the following method.
To a reaction mixture (45 μL) containing 3.0 μmol/L kynurenine, 10 μmol/L pyridoxal phosphate, 2.0 ng/μL human recombinant KAT-II, and 150 mmol/L tris(hydroxymethyl)aminomethane-acetate buffer (pH 8.0) was added a 10% dimethyl sulfoxide solution (5 μL) of each test compound prepared, and the mixture was reacted at 37° C. for 1 hr. After the reaction, 50% trichloroacetic acid (5 μL) was added to terminate the reaction.
The resultant kynurenic acid was quantified as follows by high performance liquid chromatography. An enzyme reaction mixture was separated by an octadecylsilane reversed-phase column (SC-50DS, Eicom Corporation; mobile phase: 250 mmol/L zinc acetate, 50 mmol/L sodium acetate, and 5.0% acetonitrile (pH 6.2)) incubated at 30° C., and kynurenic acid was quantified using a fluorescence detector (RF-20Axs, Shimadzu Corporation) at excitation wavelength 354 nm, detection wavelength 460 nm. The analytical curve was drawn every time by an external standard method. Each test compound was tested by dual measurement at each concentration.

Sequence of human recombinant KAT-II (Q8N5Z0 30-425): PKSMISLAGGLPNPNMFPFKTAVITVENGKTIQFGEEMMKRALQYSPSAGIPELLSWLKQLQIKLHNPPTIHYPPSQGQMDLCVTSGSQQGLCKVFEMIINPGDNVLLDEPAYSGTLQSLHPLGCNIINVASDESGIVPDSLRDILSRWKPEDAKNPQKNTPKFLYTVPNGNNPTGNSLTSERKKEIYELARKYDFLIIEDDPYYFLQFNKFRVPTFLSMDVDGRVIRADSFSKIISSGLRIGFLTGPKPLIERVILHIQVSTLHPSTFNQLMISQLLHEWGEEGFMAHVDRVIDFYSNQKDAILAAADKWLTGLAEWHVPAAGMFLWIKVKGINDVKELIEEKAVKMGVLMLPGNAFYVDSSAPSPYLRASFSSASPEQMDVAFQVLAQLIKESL

Structure (SMILES)	IC50 [nM]
CCc1nc2sc([C@H]3CCCN3C(=O)Oc3ccccc3)nc2c(=O)n1Cc1ccc(OC)cc1OC [Example 111, (R)-2-[6-(2,4-dimethoxybenzyl)-5-ethyl-7-oxo-6,7-dihydro[1,3]thiazolo[5,4-d]pyrimidin-2-yl]pyrrolidine-1-carboxylic acid phenyl ester]	270
CCc1nc2sc([C@H]3CCCN3C(=O)Oc3ccccc3)nc2c(=O)[nH]1 [Example 114, (R)-2-(5-ethyl-7-oxo-6,7-dihydro[1,3]thiazolo[5,4-d]pyrimidin-2-yl)pyrrolidine-1-carboxylic acid phenyl ester]	29
CC1(c2nc3sc([C@H]4CCCN4C(=O)Oc4ccccc4)nc3c(=O)[nH]2)COC1 [Example 116, (R)-2-[5-(3-methyloxetan-3-yl)-7-oxo-6,7-dihydro[1,3]thiazolo[5,4-d]pyrimidin-2-yl]pyrrolidine-1-carboxylic acid phenyl ester]	14
Cc1noc(-c2nc3sc([C@H]4CCCN4C(=O)Oc4ccccc4)nc3c(=O)[nH]2)n1 [Example 120, (R)-2-[5-(3-methyl-[1,2,4]oxadiazol-5-yl)-7-oxo-6,7-dihydro[1,3]thiazolo[5,4-d]pyrimidin-2-yl]pyrrolidine-1-carboxylic acid phenyl ester]	4.7
CC(C)(F)c1nc2sc(N3CCCN3C(=O)Oc3ccccc3)nc2c(=O)[nH]1 [Example 131, 2-[5-(2-fluoropropan-2-yl)-7-oxo-6,7-dihydro[1,3]thiazolo[5,4-d]pyrimidin-2-yl]pyrazolidine-1-carboxylic acid phenyl ester]	110
Cc1cccc(OC(=O)N2CCCN2c2nc3c(=O)[nH]c(C(C)(C)F)nc3s2)c1 [Example 132, 2-[5-(2-fluoropropan-2-yl)-7-oxo-6,7-dihydro[1,3]thiazolo[5,4-d]pyrimidin-2-yl]pyrazolidine-1-carboxylic acid 3-methylphenyl ester]	51
CC(C)(F)c1nc2sc(N3CCCN3C(=O)Cc3ccccc3)nc2c(=O)[nH]1 [Example 133, 5-(2-fluoropropan-2-yl)-2-[2-(phenylacetyl)pyrazolidin-1-yl]-6H-[1,3]thiazolo[5,4-d]pyrimidin-7-one]	150
Cc1cccc(CC(=O)N2CCCN2c2nc3c(=O)[nH]c(C(C)(C)F)nc3s2)c1 [Example 134, 5-(2-fluoropropan-2-yl)-2-{2-[2-(3-methylphenyl)acetyl]pyrazolidin-1-yl}-6H-[1,3]thiazolo[5,4-d]pyrimidin-7-one]	230
CC(C)c1nc2sc([C@H]3CCCN3C(=O)Oc3ccccc3)nc2c(=O)n1C [Example 135, (R)-2-[6-methyl-7-oxo-5-(propan-2-yl)-6,7-dihydro[1,3]thiazolo[5,4-d]pyrimidin-2-yl]pyrrolidine-1-carboxylic acid phenyl ester]	23
O=C(Oc1ccccc1)N1CCC[C@@H]1c1nc2c(=O)[nH]c(-c3ccccc3F)cc2s1 [Example 137, (R)-2-[6-(2-fluorophenyl)-4-oxo-4,5-dihydro[1,3]thiazolo[4,5-c]pyridin-2-yl]pyrrolidine-1-carboxylic acid phenyl ester]	69
O=C(Oc1ccccc1)N1CCC[C@@H]1c1nc2c(=O)[nH]c(C(F)(F)F)cc2s1 [Example 138, (R)-2-(4-oxo-6-trifluoromethyl-4,5-dihydro[1,3]thiazolo[4,5-c]pyridin-2-yl)pyrrolidine-1-carboxylic acid phenyl ester]	390
CC(C)c1cc(=O)n2nc([C@H]3CCCN3C(=O)Oc3ccc(F)cc3)sc2n1 [Example 140, (R)-2-[5-oxo-7-(propan-2-yl)-5H-[1,3,4]thiadiazolo[3,2-a]pyrimidin-2-yl]pyrrolidine-1-carboxylic acid 4-fluorophenyl ester]	77
CC(C)c1cc(=O)n2nc([C@H]3CCCN3C(=O)Cc3ccccc3)sc2n1 [Example 142, 2-[(R)-1-(phenylacetyl)pyrrolidin-2-yl]-7-(propan-2-yl)-5H-[1,3,4]thiadiazolo[3,2-a]pyrimidin-5-one]	980
CC(C)c1cc(=O)n2nc([C@H]3CCCN3C(=O)Cc3ccc(F)cc3)sc2n1 [Example 143, 2-{(R)-1-[2-(4-fluorophenyl)acetyl]pyrrolidin-2-yl}-7-(propan-2-yl)-5H-[1,3,4]thiadiazolo[3,2-a]pyrimidin-5-one]	2200
CC(C)c1cc(=O)n2nc([C@H]3CCCN3C(=O)OCc3ccccc3)sc2n1 [Example 144, (R)-2-[5-oxo-7-(propan-2-yl)-5H-[1,3,4]thiadiazolo[3,2-a]pyrimidin-2-yl]pyrrolidine-1-carboxylic acid benzyl ester]	720
CC(C)c1cc(=O)n2nc([C@H]3CCCN3C(=O)COc3ccccc3)sc2n1 [Example 145, 2-[(R)-1-(2-phenoxyacetyl)pyrrolidin-2-yl]-7-(propan-2-yl)-5H-[1,3,4]thiadiazolo[3,2-a]pyrimidin-5-one]	1500
CCc1cc(=O)n2nc([C@H]3CCCN3C(=O)Oc3ccccc3)sc2n1 [Example 146, (R)-2-(7-ethyl-5-oxo-5H-[1,3,4]thiadiazolo[3,2-a]pyrimidin-2-yl)pyrrolidine-1-carboxylic acid phenyl ester]	140
CCc1c(C)nc2sc([C@H]3CCCN3C(=O)Oc3ccccc3)nn2c1=O [Example 148, (R)-2-(6-ethyl-7-methyl-5-oxo-5H-[1,3,4]thiadiazolo[3,2-a]pyrimidin-2-yl)pyrrolidine-1-carboxylic acid phenyl ester]	230
O=C(Oc1ccccc1)N1CCC[C@@H]1c1nn2c(=O)c3c(nc2s1)CCCC3 [Example 149, (R)-2-(5-oxo-6,7,8,9-tetrahydro-5H-[1,3,4]thiadiazolo[2,3-b]quinazolin-2-yl)pyrrolidine-1-carboxylic acid phenyl ester]	160
CC(C)c1nc2sc([C@H]3CCCN3C(=O)Oc3ccccc3)nn2c(=O)c1Cl [Example 153, (R)-2-[6-chloro-5-oxo-7-(propan-2-yl)-5H-[1,3,4]thiadiazolo[3,2-a]pyrimidin-2-yl]pyrrolidine-1-carboxylic acid phenyl ester]	48
O=C(Oc1ccccc1)N1CCC[C@@H]1c1nn2c(=O)c3cc(F)ccc3nc2s1 [Example 155, (R)-2-(7-fluoro-5-oxo-5H-[1,3,4]thiadiazolo[2,3-b]quinazolin-2-yl)pyrrolidine-1-carboxylic acid phenyl ester]	320
CC(C)c1cc(=O)n2nc([C@H]3CCCN3C(=O)NCc3ccccc3)sc2n1 [Example 157, (R)-N-benzyl-2-[5-oxo-7-(propan-2-yl)-5H-[1,3,4]thiadiazolo[3,2-a]pyrimidin-2-yl]pyrrolidine-1-carboxamide]	470
CC(C)c1cc(=O)n2nc([C@H]3CCCN3C(=O)NCc3ccccc3Cl)sc2n1 [Example 158, (R)-N-(2-chlorobenzyl)-2-[5-oxo-7-(propan-2-yl)-5H-[1,3,4]thiadiazolo[3,2-a]pyrimidin-2-yl]pyrrolidine-1-carboxamide]	170
CC(C)c1cc(=O)n2nc([C@H]3CCCN3C(=O)Nc3ccccc3)sc2n1 [Example 160, (R)-2-[5-oxo-7-(propan-2-yl)-5H-[1,3,4]thiadiazolo[3,2-a]pyrimidin-2-yl]-N-phenylpyrrolidine-1-carboxamide]	5200
CC(C)c1cc(=O)n2nc([C@H]3CCCN3C(=O)CN3CCCc4ccccc43)sc2n1 [Example 166, 2-{(R)-1-[(3,4-dihydroquinolin-1(2H)-yl)acetyl]pyrrolidin-2-yl}-7-(propan-2-yl)-5H-[1,3,4]thiadiazolo[3,2-a]pyrimidin-5-one]	190
CC(C)c1cc(=O)n2nc([C@H]3CCCN3C(=O)NC3(c4ccccc4)CC3)sc2n1 [Example 167, (R)-N-(1-phenylcyclopropyl)-2-[5-oxo-7-(propan-2-yl)-5H-[1,3,4]thiadiazolo[3,2-a]pyrimidin-2-yl]pyrrolidine-1-carboxamide]	90
CC(C)c1cc(=O)n2nc([C@H]3CCCN3C(=O)N[C@@H]3CCc4ccccc43)sc2n1 [Example 168, (R)-N-((R)-indan-1-yl)-2-[5-oxo-7-(propan-2-yl)-5H-[1,3,4]thiadiazolo[3,2-a]pyrimidin-2-yl]pyrrolidine-1-carboxamide]	410
CC(C)c1cc(=O)n2nc([C@H]3CCCN3C(=O)N3CCc4ccccc43)sc2n1 [Example 170, 2-[(R)-1-(2,3-dihydro-indole-1-carbonyl)pyrrolidin-2-yl]-7-(propan-2-yl)-5H-[1,3,4]thiadiazolo[3,2-a]pyrimidin-5-one]	880
Cc1nc2sc([C@H]3CCCN3C(=O)N[C@H](C)c3ccccc3)nn2c(=O)c1C [Example 171, (R)-2-(6,7-dimethyl-5-oxo-5H-[1,3,4]thiadiazolo[3,2-a]pyrimidin-2-yl)-N-((R)-1-phenylethyl)pyrrolidine-1-carboxamide]	1800
Cc1nc2sc([C@H]3CCCN3C(=O)NC(C)(C)c3ccccc3)nn2c(=O)c1C [Example 172, (R)-2-(6,7-dimethyl-5-oxo-5H-[1,3,4]thiadiazolo[3,2-a]pyrimidin-2-yl)-N-(1-methyl-1-phenylethyl)pyrrolidine-1-carboxamide]	840

Reference: US10065972B2, “Bicyclic or tricyclic heterocyclic compound” (MITSUBISHI TANABE PHARMA CORPORATION, priority 2014, dated 2018)
